Experimental data taken from patent publication US20140179606A1, “LEFT VENTRICULAR DIASTOLIC FUNCTION IMPROVING AGENT” (priority 2011, published 2014).

Legend:
[1] = tested on: acute heart failure model; assay: Evaluation of hemodynamics in acute heart failure model; format: in vivo, beagle; conditions: for Systemic Vascular Resistance Change Ratio (%): indication of afterload; for Systemic Vascular Resistance Change Ratio (%) / Peak Negative dP/dt Change Ratio (%) / Peak Positive dP/dt Change Ratio (%) / Left Ventricular End-Diastolic Pressure Change Ratio (%): continuous iv; for Peak Negative dP/dt Change Ratio (%): indication of left ventricular diastolic function, 60 minutes after administration; for Peak Negative dP/dt Change Ratio (%) / Peak Positive dP/dt Change Ratio (%): two increasing doses; for Peak Positive dP/dt Change Ratio (%): indication of left ventricular systolic function; for Left Ventricular End-Diastolic Pressure Change Ratio (%): indication of preload
Experimental: The acute heart failure model was produced by the following method. A male beagle (the weight was more than 10 kg) was anesthetized with pentobarbital sodium (30 mg/kg, intravenous administration), and then a tracheal catheter was introduced to the trachea and connected to a ventilator. The frequency of breath of the ventilator was set to 15 strokes per minute; the amount of ventilation was set to 20 mL/kg per stroke, and the respiration was controlled by using a mixed gas (Air:O2=3:0.2 as an indication). The animal was fixed with the lateral position and the hair of the left chest area, left and right femoral areas and cervical region was cut. Pentobarbital sodium (5 mg/kg/hr) was intravenously administered continuously from right cephalic vein, and the anesthesia was continued. The chest was opened at the left fourth rib, and the ascending aorta origin was exfoliated. Lactated Ringer's solution was intravenously administered continuously from the catheter inserted to the left femoral vein (5 mL/min). Further, in order to prevent the arrhythmia from occurring, propranolol hydrochloride (0.3 mL/min) was administered continuously together with the volume overload (mixed with lactated Ringer's solution) until the completion of the experiment. The left anterior descending coronary artery (LAD) was ligated 30 minutes after the administration of lactated Ringer's solution. After the hemodynamics became stable, methoxamine hydrochloride was administered continuously from the left femoral vein. In order to increase the systemic vascular resistance and thus decrease the cardiac output, methoxamine hydrochloride was maintained at the volume of 5 to 10 μg/kg/min so that the cardiac output decreased by 20% or more in comparison with the cardiac output before the volume overload, and methoxamine hydrochloride was administered continuously until the completion of the experiment.
From the point, at which the cardiac output decreased by 20% or more after the initiation of the continuous administration of methoxamine hydrochloride in comparison with the cardiac output before the administration of lactated Ringer's solution and other hemodynamics became stable, physiological saline (0.3 mL/min) was administered from the right femoral vein for 30 minutes (preceding phase of administration). Then, the compound A, (11α,13E,15α)-9-oxo-11,15-dihydroxy-16-(3-methoxymethylphenyl)-17,18,19,20-tetranor-5-tiaprost-13-enoic acid methyl ester (the EP4 agonist described in Example 1 of WO2000/003980, abbreviated to […] below), and carperitide (atrial natriuretic peptide), nitroglycerin (a vasodilator), nicorandil (a vasodilator) and milrinone (a phosphodiesterase III inhibitor: a compound having a cardiac effect and a vasodilation effect), which are existing agents for treating heart failure, were each administered for 30 minutes with increasing the dose gradually from the right femoral vein at the doses in the following table. The administered groups (four examples each) and the doses are shown below.
The measurement of cardiac hemodynamics was conducted every 10 minutes both during the preceding phase of administration and during the continuous administration of each dose.
Through the catheter introducer inserted to the right femoral artery, a pig tale catheter was introduced and indwelled in the left ventricle and connected to a disposable blood pressure transducer, and the left ventricular pressure (LVP) was measured through an amplifier for the measurement. […]

normal dog = assay: Left ventricular action in a normal dog; format: in vivo
From the text: From the above results, it was considered that milrinone is not always appropriate for administering to a diastolic heart failure patient with normal systolic function because milrinone has a strong cardiotonic action, while the compound A selectively improves left ventricular diastolic function as compared with the effect to improve systolic function and thus is also effective for a diastolic heart failure patient with normal systolic function as well as a systolic heart failure patient in which both diastolic function and systolic function are impaired.

[2] = tested on: Dahl rat heart failure model; assay: Cardiac function and survival rate using Dahl rat (hypertensive / chronic heart failure model); format: in vivo; conditions: oral, two times a day for 90 days, compound A 300 μg/kg, milrinone 1000 μg/kg; for survival rate: FIG. 2; for left ventricular diastolic wall strain (DWS) index: FIG. 3
Experimental: A model of hypertensive heart failure, which is diastolic heart failure, was prepared by feeding solid feed for high salt load rat (corresponding to 8% salt) to 47-day-old male DIS/Eis rats (Dahl rats). Solid feed for normal feed rat (corresponding to 0.3% salt) was fed to a normal control group (10 examples).
The test compounds were orally administered repeatedly for 90 days two times a day with the dose of 5 mL/kg using a stomach tube to 13-week-old Dahl rats. The dose of the compound A was 300 μg/kg and the dose of milrinone was 1000 μg/kg (30 examples each).
The cardiac functions were measured with using an ultrasound imaging device under 2% isoflurane anesthesia by a general anesthesia device for an animal before the administration (12 weeks old: grouping value), on the 45th day of the administration and the 91st day of the administration. The hair of the chest area of a rat was removed and the changes in the left ventricular end-diastolic dimension, the left ventricular end-systolic dimension, the end-diastolic left ventricular anterior wall thickness, the end-diastolic left ventricular posterior wall thickness, the end-systolic left ventricular posterior wall thickness and the left ventricular posterior epicardial surface were measured with placing a linear probe on the chest area with M-mode. Further, the left ventricular ejection fraction (LVEF) and the left ventricular diastolic wall strain (DWS) index as the indication of left ventricular diastolic function were calculated.
The general state was observed once or twice a day throughout the experiment period, and dead or alive was confirmed and the general symptoms were recorded.

[3] = Toxicity, repeated oral administration to a dog for four weeks; format: in vivo; conditions: dose up to 30 times the dose showing vasodilation effect on single administration
From the text: Toxicity of the compound used for the agent of present invention is very low, and the compound is safe enough to be used as a medicine.

| Structure (SMILES) | Systemic Vascular Resistance Change Ratio (%) [1] [%] | Peak Negative dP/dt Change Ratio (%) [1] [%] | Peak Positive dP/dt Change Ratio (%) [1] [%] | Left Ventricular End-Diastolic Pressure Change Ratio (%) [1] [%] | left ventricular diastolic / systolic action in a normal dog (normal dog) | survival rate [2] | left ventricular diastolic wall strain (DWS) index [2] | PaO2 (arterial oxygen pressure) change ratio ([1]; continuous iv 3, 10 ng/kg/min) [%] | increase of cardiac output ([1]; continuous iv 3, 10 ng/kg/min) | urine volume change ratio ([1]; continuous iv 3, 10 ng/kg/min) [%] | toxicity [3] |
| --- | --- | --- | --- | --- | --- | --- | --- | --- | --- | --- | --- |
| O=C(O)CCCCCCN1C(=O)CC[C@@H]1CC[C@@H](O)Cc1cccc(C(F)(F)F)c1 [Compound C] | −14 | −1 | 2 | −37 |  |  |  |  |  |  |  |
| O=[N+]([O-])OCC(CO[N+](=O)[O-])O[N+](=O)[O-] [Nitroglycerin, nitroglycerin] |  | −8 |  |  |  |  |  |  |  |  |  |
| O=C(NCCO[N+](=O)[O-])c1cccnc1 [Nicorandil, nicorandil] |  | −7 |  |  |  |  |  |  |  |  |  |
| COCc1cccc(CC(O)/C=C/C2C(O)CC(=O)C2CCSCCCC(=O)OC)c1 (stereo not drawn) [Compound B, (11α,13E,15α)-9-oxo-11,15-dihydroxy-16-(3-methoxymethylphenyl)-17,18,19,20-tetranor-5-tiaprost-13-enoic acid methyl ester] | −43 | −3 | −4 | −41 |  |  |  |  |  |  |  |
| Cc1[nH]c(=O)c(C#N)cc1-c1ccncc1 [Milrinone, milrinone] |  | 23 | 38 |  | showed a strong left ventricular systolic effect | the degree of the improvement of the survival rate was small | did not improve DWS |  |  |  |  |
| O=C(O)CCCSCCN1C(=O)CC[C@@H]1/C=C/[C@@H](O)Cc1ccc(F)cc1 [Compound A, 4-[(2-{(2R)-2-[(1E,3S)-4-(4-fluorophenyl)-3-hydroxy-1-buten-1-yl]-5-oxo-1-pyrrolidinyl}ethyl)thio]butanoic acid] | −34 | 48 | 16 | −42 | did not show left ventricular diastolic action or left ventricular systolic action | drastically improved the survival rate | remarkably improved DWS | 111.5 | about 60% | 145.4 | not found to be toxic |
| CC[C@H](C)[C@@H]1NC(=O)[C@H](CCCNC(=N)N)NC(=O)[C@H](CC(=O)O)NC(=O)[C@H](CCSC)NC(=O)[C@H](CCCNC(=N)N)NC(=O)CNC(=O)CNC(=O)[C@H](Cc2ccccc2)NC(=O)[C@@H](NC(=O)[C@H](CO)NC(=O)[C@H](CO)NC(=O)[C@H](CCCNC(=N)N)NC(=O)[C@H](CCCNC(=N)N)NC(=O)[C@H](CC(C)C)NC(=O)[C@@H](N)CO)CSSC[C@@H](C(=O)N[C@@H](CC(N)=O)C(=O)N[C@@H](CO)C(=O)N[C@@H](Cc2ccccc2)C(=O)N[C@@H](CCCNC(=N)N)C(=O)N[C@@H](Cc2ccc(O)cc2)C(=O)O)NC(=O)CNC(=O)[C@H](CC(C)C)NC(=O)CNC(=O)[C@H](CO)NC(=O)[C@H](CCC(N)=O)NC(=O)[C@H](C)NC(=O)CNC1=O [Carperitide, carperitide] |  | −6 |  |  |  |  |  |  |  |  |  |
| O=C(O)CCCSCCN1C(=O)CC[C@@H]1CC[C@@H](O)c1cccc(Oc2cccc(F)c2)c1 [Compound D] | −42 | −5 | −9 | −46 |  |  |  |  |  |  |  |
